Experimental data reported in patent US20100062969A1, “HYDROPHILIC POLYMER-CONJUGATED LIPIDS FOR PEPTIDE AND PROTEIN FOLDING DISORDERS” (priority 2006, published 2010).

Tests used:
[1] = α-Helicity of VIP by circular dichroism; type: physicochemical
Procedure: (§1) • Lipid:peptide saturation ratio and number of peptide/micelle were determined via fluorescent spectroscopy where 10 μM of VIP was incubuated with varying concentration of SSM or SSMM to achieve lipid:peptide molar ratio ranging from 0 to 40. The data was then fitted into a simple, rectangular hyperbola curve using SigmaPlot® to determine lipid:peptide saturation ratio. The maximum number of peptide molecules that could interact with each micelle was calculated from the aggregation number of lipid monomers per micelle (˜90) for both SSM and SSMM (Ashok B, et al. J Pharm Sci 2004; 93: 2476-2487). • α-helicity was determined by CD using 20 μM of VIP in 5 mM of SSM or SSMM (lipid:VIP ratio of 250:1). The same samples were used for particle size measurement. • Fluorescent anisotropy was conducted using 100 μM of VIP in 4.5 mM of SSM or SSMM (lipid:VIP ratio of 45:1) which is close to the lipid:peptide saturation ratio. The measurements were done using Perkin Elmer luminescence spectrometer LS50B.

[2] = Circulating half life of VIP in vivo; conditions: read-out: Circulating t½ in vivo (converted)
[3] = Fluorescent anisotropy of VIP; type: physicochemical; conditions: 100 μM VIP, […] SSM or SSMM (lipid:VIP 45:1)
Procedure: as §1

[4] = Stability of VIP and VIP-SSM in human serum; conditions: buffer or solvent
Procedure: Since VIP is highly susceptible to enzymatic hydrolysis in serum, we have also tested serum stability of SSM-VIP formulation in a surrogate in vitro system. Briefly, DSPE-PEG2000 (5 mM) was weighed and hydrated (10 mM HEPES buffer, pH 7.4). VIP (5 nmol) was added to preformed SSM and incubated for 2 h at 25° C. to form VIP-SSM. Formulation was then incubated in human serum (25, 50% v/v). Sample aliquots were removed and analyzed on 0, 1, 3, 5 and 7 days following storage at 37° C. These samples were analyzed for the % of intact VIP associated with SSM following separation of unbound VIP from SSM.

CC[C@H](C)[C@H](NC(=O)[C@H](CO)NC(=O)[C@H](CC(N)=O)NC(=O)[C@H](CC(C)C)NC(=O)[C@H](Cc1ccc(O)cc1)NC(=O)[C@H](CCCCN)NC(=O)[C@H](CCCCN)NC(=O)[C@@H](NC(=O)[C@H](C)NC(=O)[C@H](CCSC)NC(=O)[C@H](CCC(N)=O)NC(=O)[C@H](CCCCN)NC(=O)[C@H](CCCNC(=N)N)NC(=O)[C@H](CC(C)C)NC(=O)[C@H](CCCNC(=N)N)NC(=O)[C@@H](NC(=O)[C@H](Cc1ccc(O)cc1)NC(=O)[C@H](CC(N)=O)NC(=O)[C@H](CC(=O)O)NC(=O)[C@@H](NC(=O)[C@H](Cc1ccccc1)NC(=O)[C@@H](NC(=O)[C@H](C)NC(=O)[C@H](CC(=O)O)NC(=O)[C@H](CO)NC(=O)[C@@H](N)Cc1c[nH]cn1)C(C)C)[C@@H](C)O)[C@@H](C)O)C(C)C)C(=O)N[C@@H](CC(C)C)C(=O)N[C@@H](CC(N)=O)C(N)=O [VIP in saline, vasoactive intestinal peptide]
% α-Helix of VIP [1]: 5 ± 1%
half-life [2]: 18 min
Anisotropy [3]: 0.052 ± 0.004
metabolised at 24 h [4]: ~65%
